Data from patent US8101760B2, “Glucocorticoid receptor modulator and methods of use” (Eli Lilly and Company, priority 2007, dated 2012).

How the values were obtained:
[1] = target: T1, human androgen receptor (AR) (Homo sapiens, UniProt P10275); test: Nuclear hormone receptor functional modulation assay (ARE-luciferase, HEK293), AR; type: cell-based
T1 construct: expressed in transfected cells; host or cells: HEK293, transient transfection (Fugene), CMV promoter plasmid
T1 sequence (P10275 1-920): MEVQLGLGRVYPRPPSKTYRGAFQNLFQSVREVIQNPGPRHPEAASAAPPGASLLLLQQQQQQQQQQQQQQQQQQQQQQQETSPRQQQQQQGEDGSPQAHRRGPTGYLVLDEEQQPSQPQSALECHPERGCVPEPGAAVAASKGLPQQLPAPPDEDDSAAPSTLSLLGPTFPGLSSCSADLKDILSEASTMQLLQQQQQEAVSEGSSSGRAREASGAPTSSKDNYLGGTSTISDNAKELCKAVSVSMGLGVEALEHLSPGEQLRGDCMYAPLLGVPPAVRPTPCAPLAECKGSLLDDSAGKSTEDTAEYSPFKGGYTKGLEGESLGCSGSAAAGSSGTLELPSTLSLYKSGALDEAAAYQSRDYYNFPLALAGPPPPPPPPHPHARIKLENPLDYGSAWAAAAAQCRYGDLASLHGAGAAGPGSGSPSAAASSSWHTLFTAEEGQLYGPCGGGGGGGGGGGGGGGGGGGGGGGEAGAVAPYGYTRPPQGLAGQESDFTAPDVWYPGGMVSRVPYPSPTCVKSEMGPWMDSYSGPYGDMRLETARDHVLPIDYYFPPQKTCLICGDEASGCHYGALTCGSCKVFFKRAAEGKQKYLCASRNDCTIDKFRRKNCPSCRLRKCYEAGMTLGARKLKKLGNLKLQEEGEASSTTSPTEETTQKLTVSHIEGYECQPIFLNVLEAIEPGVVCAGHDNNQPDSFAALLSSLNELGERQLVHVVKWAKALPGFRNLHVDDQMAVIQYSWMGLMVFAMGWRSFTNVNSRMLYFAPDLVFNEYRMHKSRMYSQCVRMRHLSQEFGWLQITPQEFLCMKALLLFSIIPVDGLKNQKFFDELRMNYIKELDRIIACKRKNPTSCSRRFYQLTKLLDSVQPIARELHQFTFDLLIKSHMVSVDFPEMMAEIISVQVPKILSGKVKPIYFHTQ
From the text: (§1) The solvents, reagents, and ligands employed in the functional assay are readily available from commercial sources, or can be prepared by one of ordinary skill in the art.
(§2) Human embryonic kidney HEK293 cells are transfected with steroid hormone receptor and reporter gene plasmids using Fugene™ (Roche Diganostics) transfection reagent. Briefly, the reporter plasmid containing two copies of probasin ARE (androgen response element 5′GGTTCTTGGAGTACT3′ (SEQ ID NO:1)) and TK(thymidine kinase) promoter upstream of the luciferase reporter cDNA, is transfected into HEK293 cells with a plasmid constitutively expressing human androgen receptor (AR) using viral CMV(cytomegalovirus) promoter. The reporter plasmid containing two copies of GRE (glucocorticoid response element 5′TGTACAGGATGTTCT′3 (SEQ ID NO:2)) and TK promoter upstream of the luciferase reporter cDNA is transfected with a plasmid constitutively expressing either human glucocorticoid receptor (GR), human mineralocorticoid receptor (MR), or human progesterone receptor (PR) using viral CMV promoter. Cells are transfected in T150 cm flasks in DMEM media with 5% charcoal-stripped Fetal Bovine Serum (FBS). […] In the antagonist mode for the assays, low concentrations of agonist for each respective receptor are added to the media (0.25 nM dexamethasone for GR, 0.3 nM of methyltrienolone for AR, 0.05 nM of promegestone for PR and 0.05 nM aldosterone for MR), and the ability of test compound to antagonize the agonist response is determined. After 24 hours of incubation with test compounds, cells are lysed and luciferase activity is determined using standard techniques.
(§3) Data are fitted to a four parameter-fit logistic curve fit to determine EC50 values. […] IC50 values may be determined similarly using antagonist mode assay data. Percent inhibitions may also be determined relative to the response in the presence of agonist alone, as described above.

[2] = target: T2, human progesterone receptor (PR) (Homo sapiens, UniProt P06401); test: Nuclear hormone receptor functional modulation assay (GRE-luciferase, HEK293), PR; type: cell-based
T2 construct: expressed in transfected cells; host or cells: HEK293, transient transfection (Fugene), CMV promoter plasmid
T2 sequence (P06401 1-933): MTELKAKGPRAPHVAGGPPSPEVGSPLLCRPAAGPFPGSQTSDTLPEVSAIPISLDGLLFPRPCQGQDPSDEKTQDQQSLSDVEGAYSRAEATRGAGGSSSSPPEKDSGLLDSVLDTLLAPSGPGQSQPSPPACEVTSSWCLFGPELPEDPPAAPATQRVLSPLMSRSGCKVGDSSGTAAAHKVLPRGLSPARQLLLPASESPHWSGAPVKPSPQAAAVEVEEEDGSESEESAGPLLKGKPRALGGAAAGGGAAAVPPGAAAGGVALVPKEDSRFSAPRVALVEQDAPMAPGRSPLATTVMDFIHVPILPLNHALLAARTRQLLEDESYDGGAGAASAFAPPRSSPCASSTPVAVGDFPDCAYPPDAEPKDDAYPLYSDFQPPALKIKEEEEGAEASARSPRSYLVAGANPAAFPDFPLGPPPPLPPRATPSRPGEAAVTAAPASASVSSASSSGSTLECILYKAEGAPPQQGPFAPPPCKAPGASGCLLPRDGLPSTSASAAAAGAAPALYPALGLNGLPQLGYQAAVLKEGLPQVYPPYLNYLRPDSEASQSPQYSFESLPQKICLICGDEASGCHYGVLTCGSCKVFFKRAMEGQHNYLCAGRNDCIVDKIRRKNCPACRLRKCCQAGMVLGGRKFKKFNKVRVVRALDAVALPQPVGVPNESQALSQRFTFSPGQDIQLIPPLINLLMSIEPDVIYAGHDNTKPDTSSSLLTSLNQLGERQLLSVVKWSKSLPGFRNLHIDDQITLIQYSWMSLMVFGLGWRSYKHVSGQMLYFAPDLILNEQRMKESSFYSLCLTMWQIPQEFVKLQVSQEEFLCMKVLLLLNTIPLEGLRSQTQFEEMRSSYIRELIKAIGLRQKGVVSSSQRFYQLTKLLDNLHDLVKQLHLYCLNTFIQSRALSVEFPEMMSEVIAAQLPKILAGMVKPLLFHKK
From the text: as §1, §2, §3

[3] = Metabolic profiling of plasma after in vivo administration, dog
[4] = agonist mode, activating transcription
[5] = functional modulation, in words

EC50 [1, 4]: > 10 µM
modulation of gene expression mediated by AR [1, 5]: only limited activity
AR % Eff. ([1]; percent efficacy at 10 μM relative to 100 nM methyltrienolone, mean of 3): 2.4%
EC50 [2, 4]: > 10 µM
modulation of gene expression mediated by PR [2, 5]: only limited activity
PR % Eff. ([2]; percent efficacy at 10 μM relative to 30 nM promegestone, mean of 3): 40.1%
circulating entity in plasma [3]: major circulating entity
Structure (SMILES): CC/C(=C1\c2ccc(Cl)cc2OCc2ncccc21)c1cccc(NS(C)(=O)=O)c1 [Compound (I), (E)-N-{3-[1-(8-Chloro-11H-10-oxa-1-aza-dibenzo[a,d]cyclohepten-5-ylidene)-propyl]-phenyl}-methanesulfonamide]
